Measurements as given in the NIST ThermoML archive (doi:10.1016/j.jct.2008.11.012).
± gives the expanded uncertainty stated by the source.

Columns and labels:
[1] = xn = mol fraction of the nth substance listed; details: 101 kPa, Liquid, x2 = 0; for viscosity: Concentric cylinders viscometry; for mass density: Vibrating tube method
[2] = 101 kPa, Liquid; for viscosity: Concentric cylinders viscometry; for mass density: Vibrating tube method

| SMILES | viscosity ([2]; 293.15 K) | mass density ([2]; 293.15 K) | viscosity ([2]; 303.15 K) | mass density ([2]; 303.15 K) | viscosity ([2]; 313.15 K) | mass density ([2]; 313.15 K) | viscosity ([2]; 323.15 K) | mass density ([2]; 323.15 K) | viscosity ([2]; 333.15 K) | mass density ([2]; 333.15 K) | viscosity ([2]; 343.15 K) | mass density ([2]; 343.15 K) | viscosity ([2]; 353.15 K) | mass density ([2]; 353.15 K) | viscosity ([2]; 363.15 K) | mass density ([2]; 363.15 K) | other results |
| --- | --- | --- | --- | --- | --- | --- | --- | --- | --- | --- | --- | --- | --- | --- | --- | --- | --- |
| O [water] + NCCNCCN |  |  |  |  |  |  |  |  |  |  |  |  |  |  |  |  | viscosity ([1]; 293.15 K): 1.006 ± 0.041 mPa·s; mass density ([1]; 293.15 K): 999.2 ± 1 kg/m3; viscosity ([1]; 303.15 K): 0.7988 ± 0.033 mPa·s; mass density ([1]; 303.15 K): 996.5 ± 1 kg/m3; viscosity ([1]; 313.15 K): 0.6546 ± 0.027 mPa·s; mass density ([1]; 313.15 K): 993 ± 1 kg/m3; viscosity ([1]; 323.15 K): 0.5427 ± 0.023 mPa·s; mass density ([1]; 323.15 K): 988.7 ± 1 kg/m3; viscosity ([1]; 333.15 K): 0.4596 ± 0.019 mPa·s; mass density ([1]; 333.15 K): 983.7 ± 1 kg/m3; viscosity ([1]; 343.15 K): 0.4271 ± 0.018 mPa·s; mass density ([1]; 343.15 K): 978.3 ± 1 kg/m3; viscosity ([1]; 353.15 K): 0.3731 ± 0.016 mPa·s; mass density ([1]; 353.15 K): 972.3 ± 1 kg/m3; viscosity ([1]; 363.15 K): 0.2983 ± 0.013 mPa·s; mass density ([1]; 363.15 K): 965.9 ± 1 kg/m3 |
| NCCNCCN [di(2-aminoethyl)amine] | 7.038 ± 0.28 mPa·s | 951 ± 1 kg/m3 | 4.804 ± 0.19 mPa·s | 942.3 ± 1 kg/m3 | 3.4 ± 0.14 mPa·s | 933.8 ± 1 kg/m3 | 2.695 ± 0.11 mPa·s | 925.5 ± 1 kg/m3 | 2.109 ± 0.086 mPa·s | 917 ± 1 kg/m3 | 1.703 ± 0.069 mPa·s | 908.9 ± 1 kg/m3 | 1.409 ± 0.057 mPa·s | 900.4 ± 1 kg/m3 | 1.19 ± 0.049 mPa·s | 891.9 ± 1 kg/m3 |  |
| O [water] | 1.006 ± 0.041 mPa·s | 999.2 ± 1 kg/m3 | 0.7988 ± 0.033 mPa·s | 996.5 ± 1 kg/m3 | 0.6546 ± 0.027 mPa·s | 993 ± 1 kg/m3 | 0.5427 ± 0.023 mPa·s | 988.7 ± 1 kg/m3 | 0.4596 ± 0.019 mPa·s | 983.7 ± 1 kg/m3 | 0.4271 ± 0.018 mPa·s | 978.3 ± 1 kg/m3 | 0.3731 ± 0.016 mPa·s | 972.3 ± 1 kg/m3 | 0.2983 ± 0.013 mPa·s | 965.9 ± 1 kg/m3 |  |
